Measurements reported in article PMC6747225 (International Journal of Environmental Research and Public …, 2019).

How the values were obtained:
CY2D6 enzyme = details: humans and mammals; cited from earlier work
[1] = tested on: superoxide dismutase (SOD); assay: Superoxide dismutase (SOD) activity in fish liver; format: in vivo, Carassius auratus; details: SER alone 5 μg·L^−1 compared to control, seven days
Procedure: A dechlorinated water control treatment and solvent control treatment (0.1% methanol) were also set in the exposure treatments. Each treatment was prepared in six replicate tanks (30 L) with four fish per tank. Fish were not fed during the exposure period. The exposure solutions were refreshed every 24 h. After the exposure experiment, six fish were sampled in each treatment for biochemical assay and chemical analysis. The liver, brain, gills, and muscle were dissected, immediately frozen in liquid nitrogen, and stored at −80 °C until the assays. The remaining 18 fish in each treatment were used for behavioral trials at the end of exposure.
The tissue sample was homogenized in chilled physiological saline solution (1:10, w/v). The homogenates were then centrifuged for 10 min (10,000 g) at 4 °C. The obtained supernatant was used to determine enzyme activity, MDA content, and protein concentration using bioassay kits according to the manufacturer’s protocol. Enzyme activity is reported as unit (U) mg^−1 protein, and MDA content is expressed in nmol mg^−1 protein.

| Structure (SMILES) | Inhibition of the CY2D6 enzyme (CY2D6 enzyme) | SOD activity [1] |
| --- | --- | --- |
| CN(C)CCOC(c1ccccc1)c1ccccc1 [DPH, diphenhydramine] | strong inhibitor | – |
| CN[C@H]1CC[C@@H](c2ccc(Cl)c(Cl)c2)c2ccccc21 [SER, sertraline] | – | not significantly changed |
